Patent US10329309B2, “3-(3H-imidazo[4,5-B]pyridin-2-yl)-1H-pyrazolo[4,3-B]pyridines and therapeutic uses thereof” (Samumed, LLC, priority 2015, dated 2019)
pEC50: −log10 of the molar value.

How the values were obtained:
Assay type in all cases: cell-based
[1] = test system: Wnt activity (Sp5-Luc reporter, SW480 colon carcinoma cells); assay: Screening assay for Wnt activity: Sp5-Luc reporter gene assay in SW480 cells; conditions: Homo sapiens, overnight incubation, 10-point dose-response from 10 μM
Outline: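 SW480 cells stably carrying Sp5-Luc reporter (eight TCF/LEF sites) plated at 4,000/well in 1% FBS medium with compound (10-point 1:3 series from 10 μM, 0.1% DMSO) overnight at 37 °C. BrightGlo luminescence normalized to DMSO; EC50 by four-parameter fit, else % inhibition at 10 μM.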

[2] = test system: SW480 colon cancer cells; assay: Cell viability assay (CellTiter-Blue), four days; conditions: Homo sapiens, 96 h; for pEC50: CellTiter-Blue cell viability; for inhibition at 10 µM: read-out: percent inhibition at 10 μM (given for EC50 of >10 μM)
Outline: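 SW480 cells (~2×10^3 per well) were exposed to compound for four days at 37 °C/5% CO2, using 8-point 1:3 dilutions from 10 μM to 0.0045 μM in duplicate. Viability was read by resazurin reduction (CellTiter-Blue, ~3 h, Ex 560/Em 590 nm). EC50 came from non-linear regression; above 10 μM, percent inhibition at 10 μM is given.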

[3] = test system: IL-6 (THP-1 cells); assay: Inhibition of IL-6 in LPS-stimulated THP-1 monocytes (HTRF); conditions: Homo sapiens; for pEC50: LPS 500 ng/mL, IL-6 by HTRF; for inhibition at 10 µM: LPS stimulated, IL-6, at 10 μM, read-out: percent inhibition at 10 μM (given for EC50 of >10 μM)
Outline: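 THP-1 cells, serum-starved in 1% FBS for 24 h, were pre-incubated 2 h with compound (10-point, 1:3 from 10 μM, 0.1% DMSO), then stimulated with 500 ng/mL LPS for 22 h at 37 °C. IL-6 was quantified by HTRF 665/620 ratio. EC50 was fitted from DMSO-normalized data; above 10 μM, % inhibition at 10 μM is given.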

With CC(C)CC(=O)Nc1cncc(-c2ccc3[nH]nc(-c4nc5c(-c6cccc(F)c6)ccnc5[nH]4)c3n2)c1 [Compound 2, N-(5-(3-(7-(3-fluorophenyl)-3H-imidazo[4,5-b]pyridin-2-yl)-1H-pyrazolo [4,3-b]pyridin-5-yl)pyridin-3-yl)-3-methylbutanamide] as the compound, how does the pEC50 [1] read?
The pEC50 was 6.31.

What about the pEC50 [2] of the same compound?
The pEC50 was 6.40.

What about the pEC50 [3] of the same compound?
Its pEC50 is 6.53.

CN(C)c1cncc(-c2ccc3[nH]nc(-c4nc5c(-c6cccc(F)c6)ccnc5[nH]4)c3n2)c1 [Compound 7, 5-(3-(7-(3-fluorophenyl)-3H-imidazo[4,5-b]pyridin-2-yl)-1H-pyrazolo[4,3-b]pyridin-5-yl)-N,N-dimethylpyridin-3-amine] was tested. Which pEC50 [1] did it give?
Its pEC50 is 6.03.

And the pEC50 [2]?
Its pEC50 is 6.27.

And the pEC50 [3]?
The pEC50 was 5.13.

CN(C)Cc1cncc(-c2ccc3[nH]nc(-c4nc5c(-c6cccc(F)c6)ccnc5[nH]4)c3n2)c1 [Compound 13, 1-(5-(3-(7-(3-fluorophenyl)-3H-imidazo[4,5-b]pyridin-2-yl)-1H-pyrazolo [4,3-b]pyridin-5-yl)pyridin-3-yl)-N,N-dimethylmethanamine] was tested. Which pEC50 [1] did it give?
Its pEC50 is 5.54.

What about the pEC50 [2] of the same compound?
Its pEC50 is 5.95.

And the pEC50 [3]?
Its pEC50 is 5.23.

Fc1ccc(-c2ccnc3[nH]c(-c4n[nH]c5ccc(-c6cncc(CN7CCCC7)c6)nc45)nc23)cc1 [Compound 42, 3-(7-(4-fluorophenyl)-3H-imidazo[4,5-b]pyridin-2-yl)-5-(5-(pyrrolidin-1-ylmethyl)pyridin-3-yl)-1H-pyrazolo[4,3-b]pyridine] was tested. Which pEC50 [1] did it give?
The pEC50 was 5.43.

And the pEC50 [2]?
Its pEC50 is 5.97.

And the pEC50 [3]?
Its pEC50 is < 5.00.

And the inhibition at 10 µM [3]?
Its inhibition at 10 µM is 46.1%.

What does the source list for O=C(Nc1cncc(-c2ccc3[nH]nc(-c4nc5c(-c6ccc(F)cc6)ccnc5[nH]4)c3n2)c1)C1CCC1 [Compound 49, N-(5-(3-(7-(4-fluorophenyl)-3H-imidazo[4,5-b]pyridin-2-yl)-1H-pyrazolo [4,3-b]pyridin-5-yl)pyridin-3-yl)cyclobutanecarboxamide]?
pEC50 [1]: 6.04; pEC50 [2]: 6.26; pEC50 [3]: < 5.00; inhibition at 10 µM [3]: 44%

CC(C)(C)CC(=O)Nc1cncc(-c2ccc3[nH]nc(-c4nc5c(-c6ccccc6F)ccnc5[nH]4)c3n2)c1 [Compound 72, N-(5-(3-(7-(2-fluorophenyl)-3H-imidazo[4,5-b]pyridin-2-yl)-1H-pyrazolo [4,3-b]pyridin-5-yl)pyridin-3-yl)-3,3-dimethylbutanamide] was tested. Which pEC50 [1] did it give?
The pEC50 was 5.70.

What about the pEC50 [2] of the same compound?
Its pEC50 is < 5.00.

And the inhibition at 10 µM [2]?
The inhibition at 10 µM was 0%.

And the pEC50 [3]?
Its pEC50 is < 5.00.

And the inhibition at 10 µM [3]?
The inhibition at 10 µM was 27.8%.

Fc1ccccc1-c1ccnc2[nH]c(-c3n[nH]c4ccc(-c5ccccn5)nc34)nc12 [Compound 84, 3-(7-(2-Fluorophenyl)-3H-imidazo[4,5-b]pyridin-2-yl)-5-(pyridin-2-yl)-1H-pyrazolo[4,3-b]pyridine] was tested. Which pEC50 [1] did it give?
The pEC50 was 6.17.

What about the pEC50 [2] of the same compound?
Its pEC50 is < 5.00.

What about the inhibition at 10 µM [2] of the same compound?
Its inhibition at 10 µM is 0%.

What about the pEC50 [3] of the same compound?
Its pEC50 is < 5.00.

What about the inhibition at 10 µM [3] of the same compound?
The inhibition at 10 µM was 23%.

c1cncc(-c2ccc3[nH]nc(-c4nc5c(-c6cccnc6)ccnc5[nH]4)c3n2)c1 [Compound 88, 5-(pyridin-3-yl)-3-(7-(pyridin-3-yl)-3H-imidazo[4,5-b]pyridin-2-yl)-1H-pyrazolo [4,3-b]pyridine] was tested. Which pEC50 [1] did it give?
The pEC50 was 5.80.

What about the pEC50 [2] of the same compound?
Its pEC50 is < 5.00.

And the inhibition at 10 µM [2]?
Its inhibition at 10 µM is 42.2%.

And the pEC50 [3]?
The pEC50 was < 5.00.

And the inhibition at 10 µM [3]?
Its inhibition at 10 µM is 36.6%.

CC(C)Nc1cncc(-c2ccc3[nH]nc(-c4nc5c(-c6cccnc6)ccnc5[nH]4)c3n2)c1 [Compound 96, N-isopropyl-5-(3-(7-(pyridin-3-yl)-3H-imidazo[4,5-b]pyridin-2-yl)-1H-pyrazolo[4,3-b]pyridin-5-yl)pyridin-3-amine] was tested. Which pEC50 [1] did it give?
The pEC50 was 5.71.

And the pEC50 [2]?
The pEC50 was 5.70.

And the pEC50 [3]?
The pEC50 was 6.37.

O=C(Nc1cncc(-c2ccc3[nH]nc(-c4nc5c(N6CCCCC6)ccnc5[nH]4)c3n2)c1)C1CC1 [Compound 188, N-(5-(3-(7-(Piperidin-1-yl)-3H-imidazo[4,5-b]pyridin-2-yl)-1H-pyrazolo [4,3-b]pyridin-5-yl)pyridin-3-yl)cyclopropanecarboxamide] was tested. Which pEC50 [1] did it give?
Its pEC50 is 5.40.

And the pEC50 [2]?
The pEC50 was 5.41.

What about the pEC50 [3] of the same compound?
The pEC50 was < 5.00.

And the inhibition at 10 µM [3]?
The inhibition at 10 µM was 28%.

With Cc1ccncc1-c1ccc2[nH]nc(-c3nc4c(-c5ccsc5)ccnc4[nH]3)c2n1 [Compound 285, 5-(4-methylpyridin-3-yl)-3-(7-(thiophen-3-yl)-3H-imidazo[4,5-b]pyridin-2-yl)-1H-pyrazolo[4,3-b]pyridine] as the compound, how does the pEC50 [1] read?
Its pEC50 is 6.06.

What about the pEC50 [2] of the same compound?
Its pEC50 is 6.03.

What about the pEC50 [3] of the same compound?
The pEC50 was 5.01.

With O=C(Nc1cncc(-c2ccc3[nH]nc(-c4nc5c(-c6ccsc6)ccnc5[nH]4)c3n2)c1)c1ccccc1 [Compound 291, N-(5-(3-(7-(Thiophen-3-yl)-3H-imidazo[4,5-b]pyridin-2-yl)-1H-pyrazolo [4,3-b]pyridin-5-yl)pyridin-3-yl)benzamide] as the compound, how does the pEC50 [1] read?
The pEC50 was 6.28.

What about the pEC50 [2] of the same compound?
Its pEC50 is < 5.00.

What about the inhibition at 10 µM [2] of the same compound?
The inhibition at 10 µM was 2%.

And the pEC50 [3]?
Its pEC50 is < 5.00.

And the inhibition at 10 µM [3]?
The inhibition at 10 µM was 21%.

CCCC(=O)Nc1cncc(-c2ccc3[nH]nc(-c4nc5c(-c6ccsc6)ccnc5[nH]4)c3n2)c1 [Compound 297, N-(5-(3-(7-(thiophen-3-yl)-3H-imidazo[4,5-b]pyridin-2-yl)-1H-pyrazolo[4,3-b]pyridin-5-yl)pyridin-3-yl)butyramide] was tested. Which pEC50 [1] did it give?
Its pEC50 is 6.09.

And the pEC50 [2]?
Its pEC50 is 5.58.

And the pEC50 [3]?
The pEC50 was 5.00.

How did the pEC50 [1] turn out when FC1(F)CCN(Cc2cncc(-c3ccc4[nH]nc(-c5nc6c(-c7ccsc7)ccnc6[nH]5)c4n3)c2)C1 [Compound 306, 5-(5-((3,3-difluoropyrrolidin-1-yl)methyl)pyridin-3-yl)-3-(7-(thiophen-3-yl)-3H-imidazo[4,5-b]pyridin-2-yl)-1H-pyrazolo[4,3-b]pyridine] was run?
The pEC50 was 6.27.

And the pEC50 [2]?
Its pEC50 is 6.24.

What about the pEC50 [3] of the same compound?
The pEC50 was 5.88.

How did the pEC50 [1] turn out when CCNCc1cncc(-c2ccc3[nH]nc(-c4nc5c(-c6ccoc6)ccnc5[nH]4)c3n2)c1 [Compound 314, N-((5-(3-(7-(furan-3-yl)-3H-imidazo[4,5-b]pyridin-2-yl)-1H-pyrazolo[4,3-b]pyridin-5-yl)pyridin-3-yl)methyl)ethanamine] was run?
The pEC50 was 5.42.

And the pEC50 [2]?
The pEC50 was 5.55.

And the pEC50 [3]?
The pEC50 was < 5.00.

What about the inhibition at 10 µM [3] of the same compound?
Its inhibition at 10 µM is 23.9%.

How did the pEC50 [1] turn out when CC(C)Nc1cncc(-c2ccc3[nH]nc(-c4nc5c(-c6ccoc6)ccnc5[nH]4)c3n2)c1 [Compound 320, 5-(3-(7-(furan-3-yl)-3H-imidazo[4,5-b]pyridin-2-yl)-1H-pyrazolo[4,3-b]pyridin-5-yl)-N-isopropylpyridin-3-amine] was run?
The pEC50 was 6.47.

And the pEC50 [2]?
Its pEC50 is 6.42.

And the pEC50 [3]?
The pEC50 was 6.34.

With CCCCC(=O)Nc1cncc(-c2ccc3[nH]nc(-c4nc5c(-c6ccoc6)ccnc5[nH]4)c3n2)c1 [Compound 327, N-(5-(3-(7-(furan-3-yl)-3H-imidazo[4,5-b]pyridin-2-yl)-1H-pyrazolo[4,3-b]pyridin-5-yl)pyridin-3-yl)pentanamide] as the compound, how does the pEC50 [1] read?
Its pEC50 is 6.10.

What about the pEC50 [2] of the same compound?
Its pEC50 is < 5.00.

What about the inhibition at 10 µM [2] of the same compound?
Its inhibition at 10 µM is 4.9%.

And the pEC50 [3]?
Its pEC50 is < 5.00.

And the inhibition at 10 µM [3]?
The inhibition at 10 µM was 42.4%.

With CN(C)Cc1cncc(-c2ccc3[nH]nc(-c4nc5c(-c6cccs6)ccnc5[nH]4)c3n2)c1 [Compound 349, N,N-dimethyl-1-(5-(3-(7-(thiophen-2-yl)-3H-imidazo[4,5-b]pyridin-2-yl)-1H-pyrazolo[4,3-b]pyridin-5-yl)pyridin-3-yl)methanamine] as the compound, how does the pEC50 [1] read?
Its pEC50 is 5.40.

And the pEC50 [2]?
Its pEC50 is 5.94.

And the pEC50 [3]?
Its pEC50 is 5.32.

With O=C(Nc1cncc(-c2ccc3[nH]nc(-c4nc5c(-c6cccs6)ccnc5[nH]4)c3n2)c1)C1CC1 [Compound 356, N-(5-(3-(7-(Thiophen-2-yl)-3H-imidazo[4,5-b]pyridin-2-yl)-1H-pyrazolo [4,3-b]pyridin-5-yl)pyridin-3-yl)cyclopropanecarboxamide] as the compound, how does the pEC50 [1] read?
Its pEC50 is 5.64.

And the pEC50 [2]?
Its pEC50 is < 5.00.

What about the inhibition at 10 µM [2] of the same compound?
The inhibition at 10 µM was 12.4%.

And the pEC50 [3]?
Its pEC50 is < 5.00.

What about the inhibition at 10 µM [3] of the same compound?
The inhibition at 10 µM was 38%.

What does the source list for Cc1ccc(-c2ccnc3[nH]c(-c4n[nH]c5ccc(-c6cncc(N)c6)nc45)nc23)s1 [Compound 395, 5-(3-(7-(5-methylthiophen-2-yl)-3H-imidazo[4,5-b]pyridin-2-yl)-1H-pyrazolo[4,3-b]pyridin-5-yl)pyridin-3-amine]?
pEC50 [1]: 7.33; pEC50 [2]: 7.08; pEC50 [3]: 6.60

With Cc1ccc(-c2ccnc3[nH]c(-c4n[nH]c5ccc(-c6cncc(NC(=O)C(C)C)c6)nc45)nc23)s1 [Compound 401, N-(5-(3-(7-(5-methylthiophen-2-yl)-3H-imidazo[4,5-b]pyridin-2-yl)-1H-pyrazolo[4,3-b]pyridin-5-yl)pyridin-3-yl)isobutyramide] as the compound, how does the pEC50 [1] read?
Its pEC50 is 6.25.

What about the pEC50 [2] of the same compound?
Its pEC50 is 6.57.

What about the pEC50 [3] of the same compound?
The pEC50 was 6.79.

With CC(C)Nc1cncc(-c2ccc3[nH]nc(-c4nc5c(-c6cc(F)cc(NCCN(C)C)c6)ccnc5[nH]4)c3n2)c1 [Compound 460, N^1-(3-fluoro-5-(2-(5-(5-(isopropylamino)pyridin-3-yl)-1H-pyrazolo[4,3-b]pyridin-3-yl)-3H-imidazo[4,5-b]pyridin-7-yl)phenyl)-N^2,N^2-dimethylethane-1,2-diamine] as the compound, how does the pEC50 [1] read?
Its pEC50 is 5.93.

What about the pEC50 [2] of the same compound?
The pEC50 was 6.16.

What about the pEC50 [3] of the same compound?
Its pEC50 is 5.74.
